pIC50: −log10 of the molar value. Read-outs that look alike come from different tables or passages of the source.
Target: T1, human TLR8 (Homo sapiens, UniProt Q9NR97)
T1 construct: expressed in transfected cells
T1 sequence (Q9NR97 27-1041): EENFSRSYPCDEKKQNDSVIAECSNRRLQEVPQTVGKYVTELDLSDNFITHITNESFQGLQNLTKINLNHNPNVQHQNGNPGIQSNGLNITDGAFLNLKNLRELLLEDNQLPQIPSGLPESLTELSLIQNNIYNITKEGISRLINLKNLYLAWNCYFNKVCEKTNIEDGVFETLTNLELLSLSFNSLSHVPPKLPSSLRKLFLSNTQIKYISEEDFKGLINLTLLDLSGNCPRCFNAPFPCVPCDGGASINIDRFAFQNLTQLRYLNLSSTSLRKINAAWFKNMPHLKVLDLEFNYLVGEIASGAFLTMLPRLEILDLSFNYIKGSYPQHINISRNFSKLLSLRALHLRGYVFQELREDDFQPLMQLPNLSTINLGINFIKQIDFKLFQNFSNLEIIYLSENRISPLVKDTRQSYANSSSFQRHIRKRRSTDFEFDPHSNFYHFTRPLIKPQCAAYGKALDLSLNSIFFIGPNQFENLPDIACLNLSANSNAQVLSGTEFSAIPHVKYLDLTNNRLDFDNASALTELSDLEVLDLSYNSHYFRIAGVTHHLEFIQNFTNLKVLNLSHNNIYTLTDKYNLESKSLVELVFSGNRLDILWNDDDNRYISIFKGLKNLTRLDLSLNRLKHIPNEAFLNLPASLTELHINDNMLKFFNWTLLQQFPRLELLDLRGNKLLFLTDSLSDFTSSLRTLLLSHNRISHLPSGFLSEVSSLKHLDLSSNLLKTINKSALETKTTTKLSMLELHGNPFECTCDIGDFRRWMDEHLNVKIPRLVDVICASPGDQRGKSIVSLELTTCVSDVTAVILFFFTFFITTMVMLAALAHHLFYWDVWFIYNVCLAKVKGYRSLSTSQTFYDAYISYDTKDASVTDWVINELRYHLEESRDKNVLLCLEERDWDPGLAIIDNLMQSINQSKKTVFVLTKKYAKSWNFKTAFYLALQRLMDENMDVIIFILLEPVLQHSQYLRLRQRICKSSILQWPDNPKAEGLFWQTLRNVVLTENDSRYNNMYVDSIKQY
Assay: HEK-Blue hTLR8 SEAP reporter gene inhibition assay
Format: cell-based
Settings: for pIC50: hTLR8 HEK-Blue cells, TLR8 ligand 10 µM, 20 hours, SEAP by Quanti-blue, class symbols, read-out: HEK-Blue hTLR8 IC50
Description: HEK-Blue cells with stable expression of human TLR7 or TLR8 were used in the evaluation of inhibitory activity of compounds in the present invention against TLR7 or TLR8, by using its ability to induce the SEAP reporting gene under the control of the fusion of IFN-β minimum promoters into five NF-κB and ap-1 binding sites, as follows: hTLR7 HEK-Blue cells (Invivogen, 80, 000 cells per well) or hTLR8 HEK-Blue cells (60, 000 cells per well) were added to a 96-well cell culture plate. A solution of the testing compounds were added to each well, with the final concentration of tested compounds in the medium ranged from 0.001 to 36 µM and the culture was incubated for 15 minutes. M5049 was used as positive controls in the testing.
Then a TLR7 ligand (Gardiquimod, purchased from MedChemExpress, with final concentration of ligand in cell culture medium kept at 10 µM) or a TLR8 ligand (purchased from MedChemExpress with final concentration in cell culture media at 10 µM) and the culture was incubated for 20 hours. According to the manufacturer's instructions, a HEK-Blue reagent Quanti-blue (Invivogen) was used to detect the SEAP levels in cell cultures. The half […] concentration or IC50 was calculated by using GraphPad Prism. […] Table 1: Activities of examples in this invention to hTLR7/8 in HEK-Blue Cells

Row | Compound | pIC50 | IC50 (HEK-Blue hTLR8 IC50 (µM)) [µM]
1 | 4-((4R,9S)-4,9-dimethyl-8-((2R,6R)-6-methylmorpholine-2-carbonyl)-3,4,7,8,9,10-hexahydropyrido[3',4':3,4]pyrazolo[1,5-a]pyrazin-2(1H)-yl)-3-fluoropyrazolo[1,5-a]pyridine-7-carbonitrile [Example I-122] | > 7.00 | 
2 | 4-((4R,9S)-8-(L-prolyl)-4,9-dimethyl-3,4,7,8,9,10-hexahydropyrido[3',4':3,4]pyrazolo [1,5-a]pyrazin-2(1H)-yl)-3-fluoropyrazolo[1,5-a]pyridine-7-carbonitrile [Example I-114] | > 7.00 | 
3 | CCC1CN(c2ccc(C#N)n3ncc(F)c23)Cc2c3c(nn21)CNCC3 (stereo not shown) [Example I-17, 4-(4-Ethyl-3,4,7,8,9,10-hexahydropyrido[3',4':3,4]pyrazolo[1,5-a]pyrazin-2(1H)-yl)-3-fluoropyrazolo[1,5-a]pyridine-7-carbonitrile] | < 7.00 | 
4 | C[C@@H]1CN(c2ccc(C#N)n3ncc(F)c23)Cc2c3c(nn21)CN(CCO)CC3 [Example I-19, (R)-3-Fluoro-4-(8-(2-hydroxyethyl)-4-methyl-3,4,7,8,9,10-hexahydropyrido[3',4':3,4]pyrazolo[1,5-a]pyrazin-2(1H)-yl)pyrazolo[1,5-a]pyridine-7-carbonitrile] | < 7.00 | 
5 | C[C@@H]1CN(c2ccc(C#N)n3ncc(F)c23)Cc2c3c(nn21)CN(Cc1ccn[nH]1)CC3 [Example I-29] |  | < 0.1
6 | C[C@@H]1CN(c2ccc(C#N)n3ncc(F)c23)Cc2c3c(nn21)CC(N1CCOCC1)CC3 (stereo partly drawn) [Example I-31, 3-Fluoro-4-((4R)-4-methyl-8-morpholino-3,4,7,8,9,10-hexahydropyrazino[1,2-b]indazol-2(1H)-yl)pyrazolo[1,5-a]pyridine-7-carbonitrile] | > 7.00 | 
7 | C[C@@H]1CN(c2ccc(C#N)n3ncc(F)c23)Cc2c3c(nn21)CN(C1CCNCC1O)C(=O)C3 (stereo partly drawn) [Example I-32, 3-Fluoro-4-((4R)-8-(3-hydroxypiperidin-4-yl)-4-methyl-9-oxo-3,4,7,8,9,10-hexahydropyrido[3',4':3,4]pyrazolo[1,5-a]pyrazin-2(1H)-yl)pyrazolo[1,5-a]pyridine-7-carbonitrile] | > 7.00 | 
8 | C[C@@H]1CN(c2ccc(C#N)n3ncc(F)c23)Cc2c3c(nn21)C(CO)CNC3 (stereo partly drawn) [Example I-35, 3-Fluoro-4-((7R)-4-(hydroxymethyl)-7-methyl-1,3,4,7,8,10-hexahydropyrido[4',3':3,4]pyrazolo[1,5-a]pyrazin-9(2H)-yl)pyrazolo[1,5-a]pyridine-7-carbonitrile] | > 7.00 | 
9 | C[C@@H]1CN(c2ccc(C#N)n3ncc(F)c23)Cc2c3c(nn21)CC(CO)NC3 (stereo partly drawn) [Example I-36, 3-Fluoro-4-((7R)-3-(hydroxymethyl)-7-methyl-1,3,4,7,8,10-hexahydropyrido[4',3':3,4]pyrazolo[1,5-a]pyrazin-9(2H)-yl)pyrazolo[1,5-a]pyridine-7-carbonitrile] | > 7.00 | 
10 | C[C@@H]1CN(c2ccc(C#N)n3ncc(F)c23)Cc2c3c(nn21)CC(N)C(O)C3 (stereo partly drawn) [Example I-37, 4-((4R)-8-amino-9-hydroxy-4-methyl-3,4,7,8,9,10-hexahydropyrazino [1,2-b]indazol-2(1H)-yl)-3-fluoropyrazolo[1,5-a]pyridine-7-carbonitrile] | > 7.00 | 
11 | C[C@@H]1CN(c2ccc(C#N)n3ncc(F)c23)Cc2c3c(nn21)CC1CCC3N1 (stereo partly drawn) [Example I-44, 3-Fluoro-4-((4R)-4-methyl-1,3,4,7,8,9,10,11-octahydro-2H-8,11-epiminocyclohepta [3,4]pyrazolo[1,5-a]pyrazin-2-yl)pyrazolo[1,5-a]pyridine-7-carbonitrile] | > 7.00 | 
12 | C[C@@H]1CN(c2ccc(C#N)n3ncc(F)c23)Cc2c3c(nn21)CCNC3CO (stereo partly drawn) [Example I-46, 3-fluoro-4-((7R)-1-(hydroxymethyl)-7-methyl-1,3,4,7,8,10-hexahydropyrido[4',3':3,4]pyrazolo[1,5-a]pyrazin-9(2H)-yl)pyrazolo[1,5-a]pyridine-7-carbonitrile] | > 7.00 | 
13 | C[C@@H]1CN(c2ccc(C#N)n3ncc(F)c23)Cc2c3c(nn21)CC(CN1CCOCC1)NC3 (stereo partly drawn) [Example I-47, 3-Fluoro-4-((7R)-7-methyl-3-(morpholinomethyl)-1,3,4,7,8,10-hexahydropyrido [4',3':3,4]pyrazolo[1,5-a]pyrazin-9(2H)-yl)pyrazolo[1,5-a]pyridine-7-carbonitrile] | < 7.00 | 
14 | C[C@@H]1CN(c2ccc(C#N)n3ncc(F)c23)Cc2c3c(nn21)CC(C)(C)NC3 [Example I-78, (R)-3-Fluoro-4-(3,3,7-trimethyl-1,3,4,7,8,10-hexahydropyrido[4',3':3,4]pyrazolo [1,5-a]pyrazin-9(2H)-yl)pyrazolo[1,5-a]pyridine-7-carbonitrile] | > 7.00 | 
15 | C[C@@H]1CN(c2ccc(C#N)n3ncc(F)c23)Cc2c3c(nn21)CN(CC(=O)N1C[C@H](C)N[C@@H](C)C1)[C@@H](C)C3 [Example I-145, 4-((4R,9S)-8-(2-((3S,5S)-3,5-dimethylpiperazin-1-yl)-2-oxoethyl)-4,9-dimethyl-3,4,7,8,9,10-hexahydropyrido[3',4':3,4]pyrazolo[1,5-a]pyrazin-2(1H)-yl)-3-fluoropyrazolo[1,5-a]pyridine-7-carbonitrile] | > 7.00 | 

Further lines, with some results ahead:

Row | pIC50 | Compound | IC50 (HEK-Blue hTLR8 IC50 (µM)) [µM]
16 | > 7.00 | C[C@@H]1CN(c2ccc(C#N)n3ncc(F)c23)Cc2c3c(nn21)CC(N)CC3 (stereo partly drawn) [Example I-20, 4-((4R)-8-amino-4-methyl-3,4,7,8,9,10-hexahydropyrazino[1,2-b]indazol-2(1H)-yl)-3-fluoropyrazolo[1,5-a]pyridine-7-carbonitrile] | 
17 | < 7.00 | C[C@@H]1CN(c2ccc(C#N)n3ncc(F)c23)Cc2c3c(nn21)CNCC3O (stereo partly drawn) [Example I-38, 3-Fluoro-4-((4R)-10-hydroxy-4-methyl-3,4,7,8,9,10-hexahydropyrido[3',4':3,4]pyrazolo[1,5-a]pyrazin-2(1H)-yl)pyrazolo[1,5-a]pyridine-7-carbonitrile] | 
18 | > 7.00 | CC(C)CC1NCCc2c1nn1c2CN(c2ccc(C#N)n3ncc(F)c23)C[C@H]1C (stereo partly drawn) [Example I-69, 3-Fluoro-4-((4R)-7-isobutyl-4-methyl-3,4,7,8,9,10-hexahydropyrido[3',4':3,4]pyrazolo [1,5-a]pyrazin-2(1H)-yl)pyrazolo[1,5-a]pyridine-7-carbonitrile] | 
19 | > 7.00 | CC(C)C1NCCc2c1nn1c2CN(c2ccc(C#N)n3ncc(F)c23)C[C@H]1C (stereo partly drawn) [Example I-70, 3-Fluoro-4-((4R)-7-isopropyl-4-methyl-3,4,7,8,9,10-hexahydropyrido[3',4':3,4]pyrazolo[1,5-a]pyrazin-2(1H)-yl)pyrazolo[1,5-a]pyridine-7-carbonitrile] | 
20 | > 7.00 | C[C@@H]1CN(c2ccc(C#N)n3ncc(F)c23)Cc2c3c(nn21)CC(C)(N)CC3 (stereo partly drawn) [Example I-71, 4-((4R)-8-amino-4,8-dimethyl-3,4,7,8,9,10-hexahydropyrazino[1,2-b]indazol-2(1H)-yl)-3-fluoropyrazolo[1,5-a]pyridine-7-carbonitrile] | 
21 | > 7.00 | COC[C@@H]1CCCN1CC(=O)N1Cc2nn3c(c2C[C@@H]1C)CN(c1ccc(C#N)n2ncc(F)c12)C[C@H]3C [Example I-109, 3-Fluoro-4-((4R,9S)-8-(2-((S)-2-(methoxymethyl)pyrrolidin-1-yl)acetyl)-4,9-dimethyl-3,4,7,8,9,10-hexahydropyrido[3',4':3,4]pyrazolo[1,5-a]pyrazin-2(1H)-yl)pyrazolo[1,5-a]pyridine-7-carbonitrile] | 
22 | > 7.00 | C[C@@H]1CN(c2ccc(C#N)n3ncc(F)c23)Cc2c3c(nn21)CC(N)CCC3 (stereo partly drawn) [Example I-214, 4-((4R)-8-amino-4-methyl-1,3,4,7,8,9,10,11-octahydro-2H-cyclohepta[3,4]pyrazolo[1,5-a]pyrazin-2-yl)-3-fluoropyrazolo[1,5-a]pyridine-7-carbonitrile] | 

Source: patent publication EP4644396A1 (Visionpharma (Nantong) Co., Ltd, priority 2022, dated 2024)
